Measured values as given in PMC3154276, “The Effect of the Potential PhoQ Histidine Kinase Inhibitors on Shigella flexneri Virulence” (PLoS ONE, 2011).

Experiments:
[1] = molecular target: T1, SF-PhoQc (Shigella flexneri, UniProt Q83RR1); test: Luminescent Kinase Assay of SF-PhoQc; format: biochemical, S. flexneri 2a 301
T1 construct: The amplified DNA segment encodes PhoQ HK amino acids 251–486; made in house; host or cells: E. coli JM109
Experimental: Luminescent Kinase Assay was used to confirm the effects of compounds 1, 2, 3 and 4 on the enzymatic activity of SF-PhoQc. In the Luminescent Kinase Assay, the putative kinase activity of SF-PhoQc protein was measured by quantifying the amount of ATP that remained in solution after the reaction. […] Next, the effect of each compound on the enzymatic activity of SF-PhoQc was measured.
In the Luminescent Kinase assay, reactions were performed in solid black, flat-bottomed 96-well plates. To determine the IC50 of potential PhoQ HK inhibitors, each compound underwent 2-fold serial dilutions with DMSO (0.1%) and was added into the reaction mixture. The final reaction mixture contained 4 µg of purified SF-PhoQc, 40 mmol/L Tris-Cl (pH 7.5), 16 mmol/L MgCl2, 0.8 mmol/L DTT and different concentration of 100, 50, 25, 12.5, 6.25 or 3.125 µmol/L compound, respectively. After incubation at 30°C for 25 minutes, 3 µmol/L ATP was added, and the reaction was incubated at 30°C for another 25 minutes. Next, an equal volume of Luminescent Kinase Reagent was added to each well, mixed and kept at room temperature for 10 minutes before recording the luminescence reading on a Fluoroskan Ascent FL machine (Thermo Scientific, USA). The rate of phosphorylation inhibition by a compound was calculated with the following formula: [drawing 2]
The IC50 value of each compound was determined using the Origin 7.0 software (OriginLab, Northampton, USA).

[2] = system: S. flexneri Sf9380; test: Gentamicin protection assay, intracellular growth and spreading to adjacent cell of Sf9380; format: cell-based; conditions: for intracellular growth and spreading to adjacent cell of Sf9380 (bacteria recovered / inoculated): further incubated 290 min, untreated Sf9380 0.12
Experimental: The growth curve of Sf9380 treated with or without potential PhoQ inhibitors at concentration 200 µmol/L were tested. […] The gentamicin protection assay was used as a cellular model to evaluate the inhibitory effect of the four potential PhoQ inhibitors. The bacteria were treated with each of the four potential PhoQ inhibitors in a serial dilution and grown for 8 hours. Next, the bacteria were inoculated and incubated with HeLa cells for 60 min prior to the addition of gentamicin to kill extracellular bacteria. For testing intracellular growth and spreading to adjacent cell, cells were further incubated for 290 min [9]. The results of the assays were expressed as the number of bacteria recovered from gentamicin-treated cells divided by the number of inoculated bacteria added to the cell. After lysates of HeLa cells were plated, the number of CFU that formed on LB agar were counted.
Figure 6 The effects of potential PhoQ inhibitors on virulence of Shigella. […] The bacteria pre-treated with potential PhoQ inhibitor were added to HeLa cells at a multiplicity of infection of 100. Then gentamicin was added to kill extracellular bacteria and cell lysates were plated onto LB plates, and the colonies were counted. The results of the assays were expressed as the number of bacteria recovered from gentamicin-treated cells divided by the number of inoculated bacteria added to the cell. S. flexneri Sf9380 (treated without DMSO), a clinical strain with strong virulence, served as the positive control for the cell invasion assay; E. coli ATCC 25922 (treated without DMSO), an avirulent strain, served as the negative control for the cell invasion assay; bacteria treated with 0.1% DMSO (the solvent of the potential PhoQ inhibitor) also served as a control for the cell invasion assay. Values are means ± standard deviations from 6 independent wells. *p<0.01 vs. Sf9380. (A) The effects of potential PhoQ inhibitors on cell invasion of S. flexneri Sf9380 (B) The effects of potential PhoQ inhibitors on intracellular growth S. flexneri Sf9380. (C) The effects of potential PhoQ inhibitors on cell invasion of S. flexneri 2a 301 phoQ/phoP knock-out mutant.
Bacterial ability to invade HeLa cells was tested with a gentamicin protection assay. HeLa cells were grown in six-well tissue culture plates to semi-confluent monolayers (DMEM, 10% FCS, 5% CO2). Sf9380 or Sf301 ΔphoQ/phoP was treated with potential PhoQ inhibitors for 8 hours in LB at 37°C (final concentrations of 100,50,25,12.5 or 6.25 µmol/L) prior to infection. The bacteria pre-treated with potential PhoQ inhibitor without washing, were added to semi-confluent HeLa cells at a multiplicity of infection of 100, at the same time the bacteria were diluted and plated onto LB agar plates. The CFUs were counted as initial bacterial number before added into HeLa cells. Then the plates were centrifuged at 900×g for 5 minutes. After incubating at 37°C for 60 minutes (For testing intracellular growth and spreading to adjacent cell, cells were further incubated for 290 min [9].), the cells were washed three times with PBS, and gentamicin was added to the medium to a final concentration of 10 µg/ml for 20 minutes at 37°C. After the incubation, the HeLa cells in each well were lysed in 1 ml of PBS containing 0.1% Triton X-100 for 10 minutes at room temperature. The lysates were diluted and plated onto LB agar plates in triplicate. Colonies grown on LB plates were counted. The results of the assays were expressed as the number of bacteria recovered from gentamicin-treated cells divided by the number of inoculated bacteria added to the cell. The cells were inoculated with untreated Sf9380 or Sf301 ΔphoQ/phoP (treated without DMSO) as a positive control and E. coli ATCC 25922, an avirulent strain treated without DMSO, as a negative control. […]

T1 sequence (Q83RR1 251-486): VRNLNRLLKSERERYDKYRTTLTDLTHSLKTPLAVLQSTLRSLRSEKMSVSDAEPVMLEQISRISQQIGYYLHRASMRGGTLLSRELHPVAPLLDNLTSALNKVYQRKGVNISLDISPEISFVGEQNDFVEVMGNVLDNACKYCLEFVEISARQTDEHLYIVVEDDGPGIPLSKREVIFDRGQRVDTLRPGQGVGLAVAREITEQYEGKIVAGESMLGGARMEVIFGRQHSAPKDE

Row | SMILES | IC50 [1] | effect on cell intracellular growth of Sf9380 ([2]; 100 µmo/L) | intracellular growth and spreading to adjacent cell of Sf9380 (bacteria recovered / inoculated) ([2]; 100 µmo/L) | times lower than untreated Sf9380, intracellular growth ([2]; 100 µmo/L) | times lower than untreated Sf9380, intracellular growth ([2]; 25 µmo/L) | intracellular growth and spreading to adjacent cell of Sf9380 (bacteria recovered / inoculated) ([2]; 25 µmo/L) | times lower than untreated Sf9380, intracellular growth ([2]; 12.5 µmo/L) | intracellular growth and spreading to adjacent cell of Sf9380 (bacteria recovered / inoculated) ([2]; 12.5 µmo/L)
1 | O=C(O)c1cc(-c2ccc(-c3ccccc3Cl)o2)nc2ccc3ccccc3c12 [Compound 4] | 27.2 ± 15.4 µM | no obvious effect | 0.12 | – | – | – | – | –
2 | O=C(O)c1ccc(Cl)c(-c2ccc(/C=N/NC(=O)c3ccc(Br)cc3)o2)c1 [Compound 3] | 7.99 ± 5.61 µM | – | 0.046 | 2.6 times | – | – | – | –
3 | CCOc1ccccc1-c1cc(C(=O)N/N=C/c2ccc(OCc3ccccc3)c(OC)c2)c2ccccc2n1 [Compound 2] | 48.9 ± 14.7 µM | – | – | – | 3.3 times | 0.036 | – | –
4 | O=C(Nc1ccc(C2(c3cccc(NC(=O)c4cccc5ccccc45)c3)c3ccccc3C(=O)c3ccccc32)cc1)c1ccc2ccccc2c1 [Compound 1] | 69.37 ± 0.56 µM | – | – | – | – | – | 1.96 times | 0.061
